Results from BindingDB's records for doi:10.1016/j.bioorg.2017.01.015 (Universiti Teknologi MARA (UiTM), 2017).

Target: T1, Beta-glucuronidase (Homo sapiens, UniProt P08236)
T1 sequence (P08236 whole entry): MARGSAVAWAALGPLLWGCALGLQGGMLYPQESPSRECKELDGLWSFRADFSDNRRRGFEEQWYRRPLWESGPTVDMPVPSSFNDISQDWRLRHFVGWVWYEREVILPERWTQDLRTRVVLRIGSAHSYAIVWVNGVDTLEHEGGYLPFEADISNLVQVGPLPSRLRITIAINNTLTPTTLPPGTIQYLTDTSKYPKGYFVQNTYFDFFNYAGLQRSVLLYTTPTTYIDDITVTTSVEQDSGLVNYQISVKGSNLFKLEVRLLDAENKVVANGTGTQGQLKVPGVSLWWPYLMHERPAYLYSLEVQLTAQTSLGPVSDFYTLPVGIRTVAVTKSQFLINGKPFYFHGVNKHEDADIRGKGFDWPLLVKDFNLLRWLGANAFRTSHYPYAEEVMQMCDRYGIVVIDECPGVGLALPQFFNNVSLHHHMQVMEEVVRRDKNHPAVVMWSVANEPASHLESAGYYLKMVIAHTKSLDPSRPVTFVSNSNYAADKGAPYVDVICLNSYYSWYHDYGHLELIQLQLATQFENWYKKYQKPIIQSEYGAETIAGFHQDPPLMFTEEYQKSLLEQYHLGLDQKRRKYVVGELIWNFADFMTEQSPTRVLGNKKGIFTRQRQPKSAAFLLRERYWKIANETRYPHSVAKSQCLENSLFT
Assay: β-Glucuronidase Assay
Procedure: 250 μL was the volume of total reaction. Reaction mixture containing 5 μL of test compound solution, 185 μL of 0.1 M acetate buffer and 10 μL of enzyme solution were incubated for 30 min at 37 °C. […] To avoid precipitation compound concentration were decreased and the volume of reaction was high (200 μL). Precipitation probability was less thus addition of detergents was not needed.

Structure (SMILES)	IC50
COc1ccccc1-c1nnc(-c2ccc(C(=O)NNS(=O)(=O)c3ccccc3F)cc2)o1 [2-Fluoro-N'-(4-(5-(2-methoxyphenyl)-1,3,4-oxadiazol-2yl)benzoyl)benzenesulfonohydrazide (4)]	10.3 µM
COc1ccccc1-c1nnc(-c2ccc(C(=O)NNS(=O)(=O)c3cccc(F)c3)cc2)o1 [3-Fluoro-N'-(4-(5-(2-methoxyphenyl)-1,3,4-oxadiazol-2yl)benzoyl)benzenesulfonohydrazide (5)]	28.1 µM
COc1ccccc1-c1nnc(-c2ccc(C(=O)NNS(=O)(=O)c3cccc(Br)c3)cc2)o1 [3-Bromo-N'-(4-(5-(2-methoxyphenyl)-1,3,4-oxadiazol-2yl)benzoyl)benzenesulfonohydrazide (9)]	58.2 µM
COc1ccccc1-c1nnc(-c2ccc(C(=O)NNS(=O)(=O)c3ccccc3Br)cc2)o1 [2-Bromo-N'-(4-(5-(2-methoxyphenyl)-1,3,4-oxadiazol-2yl)benzoyl)benzenesulfonohydrazide (7)]	38.5 µM

Further lines, results first:

IC50	Structure (SMILES)
89.3 µM	COc1ccccc1-c1nnc(-c2ccc(C(=O)NNS(=O)(=O)c3cccc([N+](=O)[O-])c3)cc2)o1 [N'-(4-(5-(2-methoxyphenyl)-1,3,4-oxadiazol-2-yl)benzoyl)-3-nitrobenzenesulfonohydrazide (12)]
24.3 µM	COc1ccccc1-c1nnc(-c2ccc(C(=O)NNS(=O)(=O)c3ccccc3C)cc2)o1 [N'-(4-(5-(2-methoxyphenyl)-1,3,4-oxadiazol-2-yl)benzoyl)-2-methylbenzenesulfonohydrazide (14)]
98.1 µM	COc1ccccc1-c1nnc(-c2ccc(C(=O)NNS(=O)(=O)c3ccc(C)cc3)cc2)o1 [4-methyl-N'-(4-(5-(2-methoxyphenyl)-1,3,4-oxadiazol-2-yl)benzoyl)-4-methylbenzenesulfonohydrazide (15)]
44.7 µM	COc1ccccc1-c1nnc(-c2ccc(C(=O)NNS(=O)(=O)c3ccccc3[N+](=O)[O-])cc2)o1 [N'-(4-(5-(2-methoxyphenyl)-1,3,4-oxadiazol-2-yl)benzoyl)-2-nitrobenzenesulfonohydrazide (10)]
